Patent US8993483B2, “Combination of active substances with insecticidal properties” (Bayer Intellectual Property GmbH, priority 2003, dated 2015)

Key:
Format in all cases: in vivo
[1] = system: caterpillars of the cotton boll worm (Heliothis armigera); test: Heliothis armigera test (cabbage leaf dip, kill rate); settings: single active compound
Description: (§1) The expected action for a given combination of two active compounds can be calculated as follows, according to S. R. Colby, Weeds 15 (1967), 20-22:
(§2) • X is the kill rate, expressed as a percentage of the untreated control, when employing active compound A at an application rate of m g/ha or in a concentration of m ppm, • Y is the kill rate, expressed as a percentage of the untreated control, when employing active compound B at an application rate of n g/ha or in a concentration of n ppm and • E is the kill rate, expressed as a percentage of the untreated control, when employing active compounds A and B at application rates of m and n g/ha or in a concentration of m and n ppm, then
(§3) If the actual insecticidal kill rate exceeds the calculated value, the action of the combination is superadditive, i.e. a synergistic effect is present. In this case, the actually observed kill rate must exceed the value calculated using the above formula for the expected kill rate (E).
(§4) To produce a suitable preparation of active compound, 1 part by weight of active compound is mixed with the stated amounts of solvent and emulsifier, and the concentrate is diluted with emulsifier-containing water to the desired concentration.
Cabbage leaves (Brassica oleracea) are treated by being dipped into the preparation of active compound of the desired concentration and are populated with caterpillars of the cotton boll worm (Heliothis armigera) while the leaves are still moist.
(§5) After the desired period of time, the kill in % is determined. 100% means that all caterpillars have been killed; 0% means that none of the caterpillars have been killed. The kill rates determined are calculated using Colby's formula (see page 43).

[2] = system: green peach aphid (Myzus persicae); test: Myzus persicae test (infested cabbage leaf dip, kill rate); settings: single active compound, 0.8 ppm
Description: as §1, §2, §3
(§6) To produce a suitable preparation of active compound, 1 part by weight of active compound is mixed with the stated amounts of solvent and emulsifier, and the concentrate is diluted with emulsifier-containing water to the desired concentration. […]
(§7) After the desired period of time, the kill in % is determined. […] The kill rates determined are calculated using Colby's formula (see page 43).

[3] = system: larvae of the mustard beetle (Phaedon cochleariae); test: Phaedon cochleariae larvae test (cabbage leaf dip, kill rate); settings: single active compound
Description: as §1, §2, §3
Phaedon cochleariae Larvae Test
as §6, §7

[4] = system: caterpillars of the diamond back moth (Plutella xylostella, normally sensitive strain); test: Plutella xylostella test (normally sensitive strain; cabbage leaf dip, kill rate); settings: single active compound
Description: as §1, §2, §3
Plutella xylostella Test (Normally Sensitive Strain)
as §4
Cabbage leaves (Brassica oleracea) are treated by being dipped into the preparation of active compound of the desired concentration and are populated with larvae of caterpillars of the diamond back moth (Plutella xylostella, normally sensitive strain) while the leaves are still moist.
After the desired period of time, the kill in % is determined. 100% means that all caterpillars have been killed; 0% means that none of the caterpillars have been killed. The kill rates determined are calculated using Colby's formula (see sheet 1).

[5] = system: caterpillars of the armyworm (Spodoptera frugiperda); test: Spodoptera frugiperda test (cabbage leaf dip, kill rate); settings: single active compound
Description: as §1, §2, §3
Spodoptera frugiperda Test
as §4
Cabbage leaves (Brassica oleracea) are treated by being dipped into the preparation of active compound of the desired concentration and are populated with caterpillars of the armyworm (Spodoptera frugiperda) while the leaves are still moist.
as §5

Compound	Kill rate in % after 6 d, found ([1]; 0.0064 ppm) [%]	Kill rate in % after 6 d, found [2] [%]	Kill rate in % after 6 d, found ([3]; 0.0064 ppm) [%]	Kill rate in % after 6 d, found ([4]; 0.0064 ppm) [%]	Kill rate in % after 6 d, found ([5]; 0.0064 ppm) [%]	Kill rate in % after 6 d, found ([1]; 4 ppm) [%]	Kill rate in % after 6 d, found ([3]; 4 ppm) [%]	Kill rate in % after 6 d, found ([4]; 4 ppm) [%]	Kill rate in % after 6 d, found ([5]; 4 ppm) [%]
Cc1cc(Cl)cc(C(=O)NC(C)C)c1NC(=O)c1cc(C(F)(F)F)nn1-c1ncccc1Cl [II-1-9]	0	0	0	20	0				
O=[N+]([O-])/N=C1\NCCN1Cc1ccc(Cl)nc1 [Ia, imidacloprid]						0	20	0	0
CN/C(=N\[N+](=O)[O-])NCc1cnc(Cl)s1 [Im, clothianidin]		30				40		0	
